From US20160038588A1, “Myostatin Antagonism in Human Subjects” (AMGEN INC., priority 2013, published 2016)
Where two headings read alike, the source gives them in different places.

Columns and labels:
[1] = test system: men with prostate cancer receiving ADT; experiment: Clinical study: lower extremity strength (1-RM knee extension) and SPPB; type: in vivo, human; parameters: End of Study SPPB-Total Score, Mean / End of Study SPPB-Total Score, Median / Change from Baseline to End of Study SPPB-Total Score, Mean / Change from Baseline to End of Study SPPB-Total Score, Median / Follow-up SPPB-Total Score, Mean / Follow-up SPPB-Total Score, Median: scale not given here
Description: Lower extremity strength was assessed on the basis of maximum weight lifted for one repetition (1-RM) using a knee extension machine. This assessment was performed within 2 weeks prior to and/or up to Day 2, on Day 29, and at a 1 month follow-up visit.
Short Physical Performance Battery (SPPB) was conducted within 2 weeks prior to and/or up to Day 1, on Day 29, and at the 1 month follow-up visit. The SPPB included an assessment of standing balance, timed walk test, and five repetitions of chair stand.

[2] = Clinical study: pharmacokinetics of AMG 745 after weekly SC doses; conditions: for AUC0-τ / Cmax / CL/F (apparent serum clearance, Dose/AUC Week 4): mean; for AUC0-τ: 7-day dosing interval; for Cmax: serum; for tmax: median
Description: (§1) This was a multicenter, randomized, double-blind, placebo-controlled, ascending-multiple-dose study in men with prostate cancer receiving ADT. The trial was designed to evaluate the safety, tolerability, PK, and pharmacodynamics of AMG 745.
(§2) Subcutaneous doses of 0.3 mg/kg, 1.0 mg/kg, and 3.0 mg/kg, were each administered once weekly for 4 weeks, and were evaluated in sequential cohorts. Eight subjects, randomized in a 3:1 allocation ratio to AMG 745 or placebo, were enrolled in the 0.3 mg/kg dose cohort and in the 1.0 mg/kg dose cohort. To evaluate safety, tolerability, PK and the effect of 4 weekly doses on lean body mass, a total of thirty-eight subjects were enrolled in the 3.0 mg/kg dose cohort, randomized in a 1:1 allocation ratio to AMG 745 or placebo.
(§3) The following procedures were performed pre-study and periodically during the study for all cohorts: physical examination, vital signs, electrocardiogram, hematology, chemistry, urinalysis, anti-AMG 745 antibody screen, and blood sample draws for PK. For the 3 mg/kg cohort DXA and lower extremity CT scans were conducted predose and on study day 29 (end of study) and at the one month follow-up visit. All DXA scans were performed on a Hologic or GE Lunar scanner. The same scanner was to be used for all visits for an individual subject. All DXA scans were sent to a central reading facility for review and analysis.
(§4) The pharmacokinetic analyses included all treated subjects for whom the pharmacokinetic parameters could be estimated. Pharmacokinetic parameters were estimated using noncompartmental methods. Summary statistics by dose cohort were generated for each pharmacokinetic parameter. Graphs of serum AMG 745 concentration-time profiles for individual subjects and the means for each dose were prepared.

[3] = human, in vivo, sc
Description: as §1, §2, §3, §4

[4] = test system: men with prostate cancer receiving ADT; experiment: Clinical study: pharmacodynamics (DXA lean and fat mass, CT lower extremity muscle size); type: in vivo, human
Description: Eligible subjects were men with a documented history of prostate cancer; no documented distant metastasis at time of enrollment; received ADT (androgen deprivation therapy) for at least 6 months as a primary, adjuvant, or salvage treatment for prostate cancer prior to enrollment; if ADT was being administered intermittently, serum total testosterone level <50 ng/dL at screening; a stable prostate-specific antigen (PSA) as determined by the investigator; no history of primary muscle disease, myopathy, or neuropathy; weight ≦137 kg (300 lbs) and height ≦78 inches; Eastern Cooperative Oncology Group (ECOG) performance status of 0 at screening; no clinically significant elevated creatine phosphokinase (CPK); glomerular filtration rate (GFR) >40 mL/min; aspartate aminotransferase (AST) or alanine aminotransferase (ALT)<2.5× upper limit of normal.
This planned enrollment assumed a between treatment group difference of 1.5% for the secondary endpoint, percent change in lean body mass from baseline to week 5 (standard deviation of 2.1; Smith et al. 2001), and provided 80% power for a 1-sided test at the 10% significance level. An analysis of variance (ANOVA) was used to compare percent change from baseline between treatment groups (3 mg/kg AMG 745 versus placebo).
Analyses of the pharmacodynamic effects were limited to the 3-mg/kg dose cohort and the study was designed to have 80% power to detect a statistically significant between-treatment-group difference in percent change in lean body mass.

[5] = test system: anti-AMG 745 (whole molecule) binding antibodies; experiment: Clinical study: anti-AMG 745 binding antibody immunoassays; type: in vivo, human; conditions: subjects who received AMG 745 (1/31)
Description: For the 54 subjects who completed the study serum samples were analysed by surface-plasmon-resonance-based biosensor immunoassays for anti-AMG 745 (whole molecule) binding antibodies. Samples from 2 subjects gave positive results in 1 or more of the immunoassays: […]

[6] = 0.3 mg/kg SC 4-Week Dosing (N = 6)
[7] = 1.0 mg/kg SC 4-Week Dosing (N = 6)
[8] = 3.0 mg/kg SC 4-Week Dosing (N = 19)
[9] = Week 1 (Dose 1), 0.3 mg/kg SC once-weekly
[10] = Week 1 (Dose 1), 1 mg/kg SC once-weekly
[11] = Week 1 (Dose 1), 3 mg/kg SC once-weekly
[12] = Week 4 (Dose 4), 0.3 mg/kg SC once-weekly
[13] = Week 4 (Dose 4), 1 mg/kg SC once-weekly
[14] = Week 4 (Dose 4), 3 mg/kg SC once-weekly
[15] = 3 mg/kg, baseline to EOS (day 29)
[16] = 3 mg/kg, baseline to follow-up visit
[17] = CT scan, least squares mean (SE)
[18] = DXA scan, ad hoc analysis, least squares mean (SE)
[19] = lean body mass minus the head, DXA scan, least squares mean (SE)

Substance: AMG 745: anti-myostatin peptibody: human IgG1 Fc fused at C-terminus via GGGGGAQ linker to peptide SEQ ID NO:311; chain SEQ ID NO:635
- Change from Baseline to End of Study SPPB-Total Score, Mean [1, 6]: 0.67
- Change from Baseline to End of Study SPPB-Total Score, Median [1, 6]: 1.00
- End of Study SPPB-Total Score, Mean [1, 6]: 11.00
- End of Study SPPB-Total Score, Median [1, 6]: 11.00
- Follow-up SPPB-Total Score, Mean [1, 6]: 11.00
- Follow-up SPPB-Total Score, Median [1, 6]: 11.00
- Change from Baseline to End of Study SPPB-Total Score, Mean [1, 7]: 1.50
- Change from Baseline to End of Study SPPB-Total Score, Median [1, 7]: 1.50
- End of Study SPPB-Total Score, Mean [1, 7]: 10.33
- End of Study SPPB-Total Score, Median [1, 7]: 10.00
- Follow-up SPPB-Total Score, Mean [1, 7]: 9.50
- Follow-up SPPB-Total Score, Median [1, 7]: 9.00
- Change from Baseline to End of Study SPPB-Total Score, Mean [1, 8]: 0.37
- Change from Baseline to End of Study SPPB-Total Score, Median [1, 8]: 0.00
- End of Study SPPB-Total Score, Mean [1, 8]: 10.53
- End of Study SPPB-Total Score, Median [1, 8]: 11.00
- Follow-up SPPB-Total Score, Mean [1, 8]: 10.68
- Follow-up SPPB-Total Score, Median [1, 8]: 11.00
- Change from Baseline to End of Study SPPB-Total Score, Mean ([1]; All AMG 745 Subjects (N = 31)): 0.65
- Change from Baseline to End of Study SPPB-Total Score, Median ([1]; All AMG 745 Subjects (N = 31)): 1.00
- End of Study SPPB-Total Score, Mean ([1]; All AMG 745 Subjects (N = 31)): 10.58
- End of Study SPPB-Total Score, Median ([1]; All AMG 745 Subjects (N = 31)): 11.00
- Follow-up SPPB-Total Score, Mean ([1]; All AMG 745 Subjects (N = 31)): 10.52
- Follow-up SPPB-Total Score, Median ([1]; All AMG 745 Subjects (N = 31)): 11.00
- SPPB or 1-RM knee extension, changes from baseline ([1]; four doses, no statistical analyses): effects were not apparent
- dose linearity of pharmacokinetics ([2]; 4 weekly SC doses, 0.3 to 3 mg/kg): dose-linear pharmacokinetics
- AUC0-τ [2, 9]: 68.0 µg·h/mL
- Cmax [2, 9]: 502 ng/mL
- tmax ([2]; Week 1 (Dose 1), 0.3 mg/kg SC once-weekly, men with prostate cancer on ADT): 72.4 h
- AUC0-τ [2, 10]: 321 µg·h/mL
- Cmax [2, 10]: 2380 ng/mL
- tmax ([2]; Week 1 (Dose 1), 1 mg/kg SC once-weekly, men with prostate cancer on ADT): 24.3 h
- AUC0-τ [2, 11]: 800 µg·h/mL
- Cmax [2, 11]: 6380 ng/mL
- tmax ([2]; Week 1 (Dose 1), 3 mg/kg SC once-weekly, men with prostate cancer on ADT): 71.8 h
- CL/F (apparent serum clearance, Dose/AUC Week 4) [2, 12]: 1.96 mL/h/kg
- AUC0-τ [2, 12]: 175 µg·h/mL
- Cmax [2, 12]: 1340 ng/mL
- tmax [2, 12]: 47.8 h
- CL/F (apparent serum clearance, Dose/AUC Week 4) [2, 13]: 1.89 mL/h/kg
- AUC0-τ [2, 13]: 556 µg·h/mL
- Cmax [2, 13]: 4170 ng/mL
- tmax [2, 13]: 24.0 h
- CL/F (apparent serum clearance, Dose/AUC Week 4) [2, 14]: 2.29 mL/h/kg
- AUC0-τ [2, 14]: 1380 µg·h/mL
- Cmax [2, 14]: 10800 ng/mL
- tmax [2, 14]: 24.0 h
- AR (accumulation ratio, AUC Week 4/AUC Week 1) ([3]; 0.3 mg/kg): 2.55
- AR (accumulation ratio, AUC Week 4/AUC Week 1) ([3]; 3 mg/kg): 1.78
- percent change in lean body mass, least squares mean (SE) ([4]; 3 mg/kg weekly ×4, baseline to EOS (day 29)): 1.5% (0.5%)
- lower extremity muscle size percent change [4, 15]: 1.2% (0.7%)
- percent change in fat body mass [4, 15]: −0.7% (0.2%)
- fat body mass, between-group difference vs placebo ([4]; 3 mg/kg, baseline to EOS (day 29), p=0.005): −1.0% (0.3%)
- lower extremity muscle size, between-group difference vs placebo ([4]; 3 mg/kg, baseline to EOS (day 29), p=0.065): 1.8% (1.0%)
- lower extremity muscle size percent change [4, 16]: 2.7% (0.7%)
- percent change in fat body mass [4, 16]: −0.8% (0.3%)
- lower extremity muscle size, between-group difference vs placebo ([4]; 3 mg/kg, baseline to follow-up visit, p=0.007): 2.8% (1.0%)
- percent change in lean body mass, least squares mean (SE) ([4]; 3 mg/kg, follow-up visit 1 month after day 29): 1.9% (0.5%)
- Lower-extremity Muscle Size, Between-group difference in percent change, Baseline to Follow-up Visit [Day 58] ([4]; AMG 745 vs placebo, CT, least squares mean (SE), p value 0.007): 2.8% (1.0%)
- Lower-extremity Muscle Size, Between-group difference in percent change, Baseline to EOS [Day 29] ([4]; AMG 745 vs placebo, CT, least squares mean (SE), p value 0.065): 1.8% (1.0%)
- Whole Body Fat, Between-group difference in percent change, Baseline to EOS [Day 29] ([4]; AMG 745 vs placebo, DXA, ad hoc, least squares mean (SE), p value 0.005): −1.0% (0.3%)
- Whole Body Fat, Between-group difference in percent change, Baseline to Follow-up Visit [Day 58] ([4]; AMG 745 vs placebo, DXA, ad hoc, least squares mean (SE), p value 0.068): −0.7% (0.4%)
- Lean Body Mass, Between-group difference in percent change, Baseline to EOS [Day 29] ([4]; AMG 745 vs placebo, DXA, least squares mean (SE), p value 0.008): 2.2% (0.8%)
- Lean Body Mass, Between-group difference in percent change, Baseline to Follow-up Visit [Day 58] ([4]; AMG 745 vs placebo, DXA, least squares mean (SE), p value 0.023): 1.7% (0.7%)
- Lower-extremity Muscle Size, Percent Change From Baseline to EOS [Day 29] [4, 17]: 1.2% (0.7%)
- Lower-extremity Muscle Size, Percent Change From Baseline to Follow-up Visit [Day 58] [4, 17]: 2.7% (0.7%)
- Whole Body Fat, Percent Change From Baseline to EOS [Day 29] [4, 18]: −0.7% (0.2%)
- Whole Body Fat, Percent Change From Baseline to Follow-up Visit [Day 58] [4, 18]: −0.8% (0.3%)
- Lean Body Mass, Percent Change From Baseline to EOS [Day 29] [4, 19]: 1.5% (0.5%)
- Lean Body Mass, Percent Change From Baseline to Follow-up Visit [Day 58] [4, 19]: 1.9% (0.5%)
- incidence of anti-AMG 745 (whole molecule) binding antibodies [5]: 3%
